From PubChem BioAssay (NCI)
Several values for one entry are separate records, joined by “and”; a condition that tells them apart may be missing. Identical values can stand only once.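 Each compound was tested at five concentrations against cells in 96-well plates for 48 hours. At the GI50, growth is halved. Definition used: TGI = concentration required for complete inhibition of growth.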

Experiments:
Test in all cases: NCI-60 cell line screen, 48 h
NCI-H226 lung = tested on: NCI-H226 lung
NCI-H460 lung = tested on: NCI-H460 lung
OVCAR-3 ovarian = tested on: OVCAR-3 ovarian
SF-268 CNS = tested on: SF-268 CNS
SN12C renal = tested on: SN12C renal
UACC-257 melanoma = tested on: UACC-257 melanoma
UO-31 renal = tested on: UO-31 renal
MDA-MB-435 = tested on: MDA-MB-435
DU-145 prostate = tested on: DU-145 prostate
MCF7 breast = tested on: MCF7 breast

SMILES: N.N.NCCCCN.O=C([O-])CC(=O)[O-].O=C([O-])CC(=O)[O-].[Pt+4].[Pt+4]
- GI50 (NCI-H226 lung): > 100 µM
- TGI (NCI-H226 lung): > 100 µM
- GI50 (NCI-H460 lung): 9.62 µM
- TGI (NCI-H460 lung): > 100 µM
- GI50 (OVCAR-3 ovarian): > 100 µM
- TGI (OVCAR-3 ovarian): > 100 µM
- GI50 (SF-268 CNS): > 100 µM
- TGI (SF-268 CNS): > 100 µM
- GI50 (SN12C renal): 58.5 µM
- TGI (SN12C renal): > 100 µM
- GI50 (UACC-257 melanoma): > 100 µM
- TGI (UACC-257 melanoma): > 100 µM
- GI50 (UO-31 renal): 59.4 µM
- TGI (UO-31 renal): > 100 µM

SMILES: O=C1C2c3[nH]c4ccccc4c3C3CCSCC3C2C(=O)N1c1ccccc1 (configuration not stated)
- TGI (NCI-H226 lung): > 100 µM
- TGI (NCI-H460 lung): > 100 µM
- TGI (OVCAR-3 ovarian): > 100 µM
- TGI (SF-268 CNS): > 100 µM
- TGI (SN12C renal): > 100 µM
- TGI (UACC-257 melanoma): > 100 µM
- TGI (UO-31 renal): > 100 µM

SMILES: COc1ccc(-c2nc3sccn3c2/C=C/C(=O)c2cc(OC)c(OC)c(OC)c2)cc1OC
- GI50 (MDA-MB-435): 2.84 µM
- TGI (MDA-MB-435): 19.1 µM
- GI50 (NCI-H226 lung): 2.16 µM
- TGI (NCI-H226 lung): 9.84 µM
- GI50 (NCI-H460 lung): 1.99 µM
- TGI (NCI-H460 lung): 3.76 µM
- GI50 (OVCAR-3 ovarian): 2.18 µM
- TGI (OVCAR-3 ovarian): 5.71 µM
- GI50 (SF-268 CNS): 2.36 µM
- TGI (SF-268 CNS): 6.44 µM
- GI50 (SN12C renal): 3.06 µM
- TGI (SN12C renal): 42.8 µM
- GI50 (UACC-257 melanoma): 2.65 µM
- TGI (UACC-257 melanoma): 7.17 µM
- GI50 (UO-31 renal): 0.639 µM
- TGI (UO-31 renal): 8.19 µM

SMILES: O=C(Nc1ccccc1)O/N=C1/CCCC/C1=C\c1ccccc1
- TGI (NCI-H226 lung): 49.6 µM
- TGI (NCI-H460 lung): 28.3 µM
- TGI (OVCAR-3 ovarian): 28.5 µM
- TGI (SF-268 CNS): 32.8 µM
- TGI (SN12C renal): 31 µM
- TGI (UACC-257 melanoma): 35.1 µM
- TGI (UO-31 renal): 27 µM

SMILES: C=CC[P@@]1(=O)O[C@H](c2ccccc2)C(C)N1C(C)C (some centres not stated)
- TGI (NCI-H226 lung): > 100 µM
- TGI (NCI-H460 lung): > 100 µM
- TGI (OVCAR-3 ovarian): > 100 µM
- TGI (SF-268 CNS): > 100 µM
- TGI (SN12C renal): > 100 µM
- TGI (UO-31 renal): > 100 µM

SMILES: CC1=CCP(C(F)(F)F)P(C(F)(F)F)C1 (configuration not stated)
- TGI (NCI-H226 lung): > 100 µM
- TGI (NCI-H460 lung): > 100 µM
- TGI (OVCAR-3 ovarian): > 100 µM
- TGI (SF-268 CNS): > 100 µM
- TGI (SN12C renal): > 100 µM
- TGI (UACC-257 melanoma): > 100 µM
- TGI (UO-31 renal): > 100 µM

SMILES: CC1(c2ccccc2)CC12C(=O)NC(=O)NC2=O (configuration not stated)
- TGI (NCI-H226 lung): > 100 µM
- TGI (OVCAR-3 ovarian): > 100 µM
- TGI (SF-268 CNS): > 100 µM
- TGI (SN12C renal): > 100 µM
- TGI (UACC-257 melanoma): > 100 µM
- TGI (UO-31 renal): > 100 µM

SMILES: Cc1c2cc[n+](C)cc2c(C)c2c1[nH]c1ccc(OC(C)C)cc12
- GI50 (NCI-H226 lung): 0.395 µM and 1.07 µM
- TGI (NCI-H226 lung): 2.42 µM and 6.12 µM
- TGI (NCI-H460 lung): 11.8 µM and 13.6 µM
- TGI (OVCAR-3 ovarian): 14.6 µM and 26.7 µM
- TGI (SF-268 CNS): 1.88 µM and 2.82 µM
- TGI (SN12C renal): 7.69 µM and 9.59 µM
- TGI (UACC-257 melanoma): 8.06 µM and 11.7 µM
- TGI (UO-31 renal): > 100 µM

SMILES: COc1c2c(c(OC)c3c(=O)cc(C/C(=N/NC(=O)C[n+]4ccccc4)C(=O)Nc4cc(C)ccc4C)oc13)OCO2
- TGI (NCI-H460 lung): > 100 µM
- TGI (OVCAR-3 ovarian): > 100 µM
- TGI (SF-268 CNS): > 100 µM
- TGI (SN12C renal): > 100 µM
- TGI (UACC-257 melanoma): > 100 µM
- TGI (UO-31 renal): > 100 µM

SMILES: CC(C)(C)c1ccc(Oc2ccc(C#N)c(C#N)c2)c(C(C)(C)C)c1
- TGI (NCI-H226 lung): > 100 µM
- TGI (NCI-H460 lung): > 71.1 µM
- TGI (OVCAR-3 ovarian): > 100 µM
- TGI (SF-268 CNS): > 100 µM
- TGI (SN12C renal): > 100 µM
- TGI (UACC-257 melanoma): > 100 µM
- TGI (UO-31 renal): > 77.7 µM

SMILES: Brc1nc2c3ccccc3ncn2c1Br
- TGI (NCI-H226 lung): > 100 µM
- TGI (NCI-H460 lung): > 100 µM
- TGI (OVCAR-3 ovarian): 22.5 µM
- TGI (SF-268 CNS): > 100 µM
- TGI (SN12C renal): > 100 µM
- TGI (UACC-257 melanoma): > 100 µM
- TGI (UO-31 renal): > 100 µM

SMILES: COCC1N=C(c2ccc(OC)c(OCc3ccccc3)c2OC)O[C@H]1c1ccccc1 (some centres not stated)
- TGI (NCI-H226 lung): 81.1 µM
- TGI (NCI-H460 lung): 35 µM
- TGI (OVCAR-3 ovarian): 55 µM
- TGI (SF-268 CNS): > 100 µM
- TGI (SN12C renal): 66.4 µM
- TGI (UO-31 renal): 30.1 µM

SMILES: CN(C)CCCNC(=O)c1cc(NC(=O)c2cc(NC(=O)CCCN3c4ccccc4C=Cc4ccccc43)cn2C)cn1C
- GI50 (DU-145 prostate): 10.6 µM
- TGI (DU-145 prostate): 35.4 µM
- GI50 (MCF7 breast): 4.2 µM
- TGI (MCF7 breast): > 100 µM
- GI50 (NCI-H226 lung): 19.4 µM
- TGI (NCI-H226 lung): > 100 µM
- GI50 (NCI-H460 lung): 5.19 µM
- TGI (NCI-H460 lung): > 100 µM
- GI50 (OVCAR-3 ovarian): 13.4 µM
- TGI (OVCAR-3 ovarian): 54.2 µM
- GI50 (SF-268 CNS): 5.06 µM
- TGI (SF-268 CNS): > 100 µM
- GI50 (SN12C renal): 13.8 µM
- TGI (SN12C renal): 43 µM
- GI50 (UACC-257 melanoma): 4.5 µM
- TGI (UACC-257 melanoma): 30.6 µM
- GI50 (UO-31 renal): 23.5 µM
- TGI (UO-31 renal): 59.7 µM

SMILES: CC(=O)CC(=O)CCCC(=O)Nc1ccc(Cl)cc1Cl
- TGI (NCI-H226 lung): > 100 µM
- TGI (NCI-H460 lung): > 100 µM
- TGI (OVCAR-3 ovarian): > 100 µM
- TGI (SF-268 CNS): > 100 µM
- TGI (SN12C renal): > 100 µM
- TGI (UACC-257 melanoma): > 100 µM
- TGI (UO-31 renal): > 100 µM

SMILES: CN(C)CCN1N=Nc2cccc3cccc1c23
- TGI (NCI-H226 lung): > 100 µM
- TGI (NCI-H460 lung): > 100 µM
- TGI (OVCAR-3 ovarian): > 100 µM
- TGI (SF-268 CNS): > 100 µM
- TGI (SN12C renal): > 100 µM
- TGI (UACC-257 melanoma): > 100 µM
- TGI (UO-31 renal): > 100 µM

SMILES: Nc1ccc(CCN2CCN(c3cccc(C(F)(F)F)c3)CC2)cc1
- TGI (NCI-H226 lung): > 100 µM
- TGI (NCI-H460 lung): > 100 µM
- TGI (OVCAR-3 ovarian): > 100 µM
- TGI (SF-268 CNS): > 100 µM
- TGI (SN12C renal): > 100 µM
- TGI (UACC-257 melanoma): > 100 µM
- TGI (UO-31 renal): > 100 µM

SMILES: COC(=O)C/C(C)=C/[C@@H](O)[C@H]1O[C@@H]2CC/C(Cl)=C/C/C=C(/C)[C@H](OC(C)=O)CC(=O)O[C@@H]1C2
- GI50 (DU-145 prostate): 1.29 µM
- TGI (DU-145 prostate): > 25 µM
- GI50 (MCF7 breast): 4.86 µM
- TGI (MCF7 breast): 15.7 µM
- GI50 (NCI-H226 lung): 4.76 µM
- TGI (NCI-H226 lung): 11.8 µM
- GI50 (NCI-H460 lung): 0.367 µM
- TGI (NCI-H460 lung): 13.8 µM
- GI50 (SF-268 CNS): 1.07 µM
- TGI (SF-268 CNS): 4.61 µM
- GI50 (SN12C renal): 1.01 µM
- TGI (SN12C renal): 7.4 µM
- GI50 (UACC-257 melanoma): 2.92 µM
- TGI (UACC-257 melanoma): 7.92 µM
- GI50 (UO-31 renal): 1.85 µM
- TGI (UO-31 renal): > 25 µM
